For this assay, the target named is T1, enzyme R39 (soluble exocellular D-alanyl-D-alanine carboxypeptidase produced by Actinomadura R39) (Actinomadura sp., UniProt P39045).
T1 construct: soluble exocellular D-alanyl-D-alanine carboxypeptidase produced by Actinomadura R39, obtained by the procedure described in J.-M. Frere et al; made in house; host or cells: Actinomadura R39 (natural producer, secreted enzyme)
In words: Test 1, rapid test (5 minutes): strip test for β-lactam antibiotics in milk using enzyme R39. The class given is binding. As to conditions: for Intensity 1st band: scale 0 to 10, reference band 6, 47° C., 3 min incubation + 2 min migration. As for the experimental part: The identifier used in this example is soluble exocellular D-alanyl-D-alanine carboxypeptidase produced by Actinomadura R39, obtained by the procedure described in J.-M. Frere et al., Antimicrobial Agents and Chemotherapy, 18(4), 506-510 (1980).
250 μl of an aqueous solution of enzyme R39 having a concentration of 1 mg/ml are dialysed for 24 hours against 500 ml of HNM buffer (Hepes 10 mM, pH 8, NaCl 10 mM, MgCl2 5 mM). To this dialysed solution of enzyme R39 are then added 2 ml of bicarbonate buffer (0.1 M sodium bicarbonate, pH 9) and 250 μl of a solution of N-hydroxysuccinimide 6-(biotinamido)caproic ester having a concentration of 5 mg/ml in anhydrous DMF. This solution is stirred gently in the LABINCO stirrer for tubes on a rotary axis (available from VEL, Belgium) at a rate of 2 revolutions/minute for 3 hours at room temperature and away from light. The solution thus obtained is dialysed against the HNM buffer ([…]) for 24 hours. In this way a solution of biotinylated enzyme R39 is obtained which is diluted in HNM-BSA buffer (Hepes 500 mM; pH 8, NaCl 500 mM, MgCl2 250 mM, BSA 10 mg/ml) to a concentration of 100 μg of enzyme R39 per ml of buffer. This solution is stored at −20° C.
As the marker use is made of particles of gold having a diameter of 40 nm on which a goat anti-biotin antibody has been deposited in the form of suspensions in a 2 mM aqueous sodium tetraborate solution, with a pH of 7.2, stabilized by 0.1% of sodium azide (available from British Biocell (Ref. GAB40)). The optical density of these suspensions at 520 nm is approximately 10 and the protein concentration is approximately 24 μg/ml.
The biotinylated enzyme R39 solution prepared in Example 2.2.1 is diluted 25 times with the HNM-BSA buffer (Hepes 500 mM, pH 8, NaCl 500 mM, MgCl2 250 mM, BSA 10 mg/ml). At room temperature, 17.5 parts by volume of this dilute biotinylated enzyme R39 solution, 9.27 parts by volume of the gold particle suspension used to label the enzyme R39 and 6 parts by volume of reference gold particle suspension are mixed (see Example 2.3).
The first capture substance makes it possible to fix the identifiers coupled with the free markers present in excess relative to the quantity of antibiotic present in the sample.
Assay devices containing membranes (2), (3) and (4) are used, assembled in accordance with the procedure described in Example 1.1. The membrane (3) of these devices carries on the proximal side the capture substance described in Example 2.4.1. and on the distal side the capture substance described in Example 2.4.2. The capture substances were deposited in accordance with the procedure described in Example 1.2.
Seven samples of milk are prepared, containing 0; 2; 4; 5; 6; 8 and 10 ppb, respectively, of penicillin G. Each of these solutions is then analysed as follows.
An aliquot is taken of 200 μl of milk sample and […] of solution A prepared in Example 2.2.3, and is placed in an Eppendorf tube. This mixture is incubated at 47° C. for 3 minutes. An assay device is then placed vertically in the Eppendorf tube such that the first end of the assay device is in contact with the mixture. The mixture is allowed to migrate over the assay device while the assembly is incubated at 47° C. for 2 minutes.
An intensity value ranging from 0 to 10 is awarded to the bands detected, the value 10 being given to the most intense band and the value 0 being given to the least intense band. On this scale, a value 6 is awarded to the reference band. The intensity of the signal observed in the first detection band is inversely proportional to the quantity of penicillin G present in the sample.
In this example, the test is considered to be positive when the first band has an intensity which is lower than that of the reference band. The results shown in Table 1 indicate that this test makes it possible to detect in 5 minutes down to 4 ppb of penicillin G in a milk sample.

T1 sequence (P39045 50-515): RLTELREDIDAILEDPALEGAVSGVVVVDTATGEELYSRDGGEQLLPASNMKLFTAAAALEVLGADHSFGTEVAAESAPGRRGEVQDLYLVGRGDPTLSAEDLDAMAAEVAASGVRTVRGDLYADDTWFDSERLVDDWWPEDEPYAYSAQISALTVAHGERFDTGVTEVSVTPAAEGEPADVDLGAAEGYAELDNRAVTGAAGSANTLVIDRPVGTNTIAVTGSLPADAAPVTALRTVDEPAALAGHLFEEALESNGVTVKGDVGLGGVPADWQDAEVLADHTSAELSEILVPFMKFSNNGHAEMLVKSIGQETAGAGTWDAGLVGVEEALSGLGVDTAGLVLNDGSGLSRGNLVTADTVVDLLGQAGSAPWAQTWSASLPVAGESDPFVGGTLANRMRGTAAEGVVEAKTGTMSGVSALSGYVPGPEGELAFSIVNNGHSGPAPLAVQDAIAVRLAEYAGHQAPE

As for `CC1(C)S[C@@H]2[C@H](NC(=O)Cc3ccccc3)C(=O)N2[C@H]1C(=O)O` [Penicillin G, penicillin G], the “Intensity 1st band” value was determined as 8 (2 ppb penicillin G in milk); 5 (4 ppb penicillin G in milk); 3 (5 ppb penicillin G in milk); 2 (6 ppb penicillin G in milk); 1 (8 ppb penicillin G in milk); 0 (10 ppb penicillin G in milk). Where the note is “in 5 minutes, positive when first band is less intense than reference band”, the “lowest concentration detected in a milk sample” value came out at 4 ppb.

(Values after US20040096356A1, “Assay device for determining analytes in a liquid dairy product” (priority 1997, published 2004).)
